From patent publication US4617189A, “Use of selenium-containing compounds for negating the toxic effects of platinum compounds used in chemotherapy, and a novel selenium-containing platinum compound and use thereof as an anti-cancer medicine” (priority 1985, dated 1986)

Legend:
[1] = system: cadmium induced testicular damage; details: Kar and co-workers, 1969; cited from earlier work
[2] = system: Cisplatin induced nephrotoxicity; assay: Platinum toxicity negating effect: blood urea nitrogen (BUN) determination in BDF1 mice given Cisplatin; format: in vivo, mouse (male BDF1); details: for BUN (≥30) on the fourth day / BUN (≥30) on the eleventh day: mice with BUN ≥30 / mice
Protocol: BUN of the mice which have been administered a platinum complex increases due to the platinum poisoning in the kidney. […] The method of negating platinum toxicity of the present invention will be illustrated in more detail by way of Examples later.
Sodium selenite was administered to the peritoneal cavities of the mice at a dosage of 6.3 mg/kg. […] BUN of the mice was determined on the fourth day from the date of the administration. […] BUN of these control groups was also determined.
BUN of the mice was dertermined on the fourth day from the date of administration and on the eleventh day from the date of the administration. […] BUN of these control groups was also determined.
Our studies were carried out in BDF1 male mice weighing approximately 25 grams. All solutions were freshly were daily and given by the intraperitoneal route.
The BUN values were determined on the fourth day after the administration of cisplatinol.

[3] = system: nephrotoxic effects of Cisplatin; details: 750 mg/kg intraperitoneally or 100 mg/kg intravenously; cited from earlier work
[4] = Table 3, sodium selenite 1 mg/kg 2 hours before Cisplatin 14 mg/kg
[5] = Table 3, sodium selenite 2 mg/kg 2 hours before Cisplatin 14 mg/kg
[6] = Table 3, sodium selenite 4 mg/kg 2 hours before Cisplatin 14 mg/kg
[7] = Table 3, sodium selenite 6 mg/kg 2 hours before Cisplatin 14 mg/kg
[8] = Table 3, sodium selenite 8 mg/kg 2 hours before Cisplatin 14 mg/kg

[Se] [selenium]
cadmium induced testicular damage [1]: prevents

O=[Se](O)O [Sodium selenite]
number of dead mice ([2]; Table 1, fourth day, sodium selenite 6.3 mg/kg 2 hours before Cisplatin 14 mg/kg): 2
BUN (≥30) on the fourth day ([2]; Table 1, sodium selenite 6.3 mg/kg 1 hour after Cisplatin 14 mg/kg): 5/5
BUN (≥30) on the fourth day ([2]; Table 1, sodium selenite 6.3 mg/kg 2 hours before Cisplatin 14 mg/kg): 1/3
BUN (≥30) on the fourth day ([2]; Table 1, sodium selenite 6.3 mg/kg 4 hours before Cisplatin 14 mg/kg): 4/5
BUN (≥30) on the fourth day ([2]; Table 1, sodium selenite 6.3 mg/kg i.p. alone, no Cisplatin): 0/5
BUN (≥30) on the fourth day ([2]; Table 1, sodium selenite 6.3 mg/kg simultaneously with Cisplatin 14 mg/kg): 2/5
number of dead mice ([2]; Table 2, fourth day, sodium selenite 6.3 mg/kg 3 hours before Cisplatin 14 mg/kg): 1
number of dead mice ([2]; Table 2, fourth day, sodium selenite 6.3 mg/kg 4 hours before Cisplatin 14 mg/kg): 1
number of dead mice ([2]; Table 2, fourth day, sodium selenite 6.3 mg/kg 6 hours before Cisplatin 14 mg/kg): 1
number of dead mice ([2]; Table 2, fourth day, sodium selenite 6.3 mg/kg simultaneously with Cisplatin 14 mg/kg): 1
BUN (≥30) on the fourth day ([2]; Table 2, sodium selenite 6.3 mg/kg 1 hour before Cisplatin 14 mg/kg): 3/5
BUN (≥30) on the fourth day ([2]; Table 2, sodium selenite 6.3 mg/kg 2 hours before Cisplatin 14 mg/kg): 1/5
BUN (≥30) on the fourth day ([2]; Table 2, sodium selenite 6.3 mg/kg 3 hours before Cisplatin 14 mg/kg): 1/4
BUN (≥30) on the fourth day ([2]; Table 2, sodium selenite 6.3 mg/kg 4 hours before Cisplatin 14 mg/kg): 2/4
BUN (≥30) on the fourth day ([2]; Table 2, sodium selenite 6.3 mg/kg 6 hours before Cisplatin 14 mg/kg): 2/4
BUN (≥30) on the fourth day ([2]; Table 2, sodium selenite 6.3 mg/kg simultaneously with Cisplatin 14 mg/kg): 2/4
number of dead mice ([2]; Table 3, eleventh day, sodium selenite 2 mg/kg 2 hours before Cisplatin 14 mg/kg): 1
number of dead mice ([2]; Table 3, eleventh day, sodium selenite 4 mg/kg 2 hours before Cisplatin 14 mg/kg): 2
number of dead mice ([2]; Table 3, eleventh day, sodium selenite 6 mg/kg 2 hours before Cisplatin 14 mg/kg): 1
number of dead mice ([2]; Table 3, eleventh day, sodium selenite 8 mg/kg 2 hours before Cisplatin 14 mg/kg): 1
number of dead mice ([2]; Table 3, fourth day, sodium selenite 4 mg/kg 2 hours before Cisplatin 14 mg/kg): 1
number of dead mice ([2]; Table 3, fourth day, sodium selenite 8 mg/kg 2 hours before Cisplatin 14 mg/kg): 1
BUN (≥30) on the eleventh day [2, 4]: 1/5
BUN (≥30) on the fourth day [2, 4]: 3/5
BUN (≥30) on the eleventh day [2, 5]: 0/4
BUN (≥30) on the fourth day [2, 5]: 1/5
BUN (≥30) on the eleventh day [2, 6]: 0/3
BUN (≥30) on the fourth day [2, 6]: 1/4
BUN (≥30) on the eleventh day [2, 7]: 0/4
BUN (≥30) on the fourth day [2, 7]: 1/5
BUN (≥30) on the eleventh day [2, 8]: 0/4
BUN (≥30) on the fourth day [2, 8]: 1/4

CCN(CC)C(=S)[S-].[Na+] [sodium diethyldithiocarbamate]
nephrotoxic effects of Cisplatin in female rats [3]: effectively inhibited
